Measurements reported in BigSolDB 2.1.

O=Cc1ccc2ccccc2c1
solubility (mole fraction)
Settings | 283.15 K | 288.15 K | 293.15 K | 298.15 K | 303.15 K | 308.15 K | 313.15 K
in ethanol | 0.0161 | 0.0245 | 0.0377 | 0.0653 | 0.11 | 0.191 | 0.314
in isopropanol | 0.0115 | 0.0201 | 0.0404 | 0.0557 | 0.0908 | 0.144 | 0.237
in methanol | 0.00592 | 0.00987 | 0.0163 | 0.0274 | 0.0418 | 0.0696 | 0.119
in n-butanol | 0.0195 | 0.0281 | 0.0425 | 0.0561 | 0.0758 | 0.117 | 0.164
in n-heptane | 0.00944 | 0.0128 | 0.0164 | 0.0192 | 0.0255 | 0.0345 | 0.0415
in n-hexane | 0.00727 | 0.00923 | 0.0128 | 0.0159 | 0.0189 | 0.026 | 0.0314
